The source of these data is EP2801573A1, “Hydantoine derivatives as CD38 inhibitors” (SANOFI, priority 2013, dated 2014).

Where a name gives a salt, the structure may show the parent alone.

In the test the target is T1, human recombinant CD38 enzyme (Homo sapiens, UniProt P28907).
T1 construct: purchased R&D Systems H7006
T1 sequence (P28907 1-300): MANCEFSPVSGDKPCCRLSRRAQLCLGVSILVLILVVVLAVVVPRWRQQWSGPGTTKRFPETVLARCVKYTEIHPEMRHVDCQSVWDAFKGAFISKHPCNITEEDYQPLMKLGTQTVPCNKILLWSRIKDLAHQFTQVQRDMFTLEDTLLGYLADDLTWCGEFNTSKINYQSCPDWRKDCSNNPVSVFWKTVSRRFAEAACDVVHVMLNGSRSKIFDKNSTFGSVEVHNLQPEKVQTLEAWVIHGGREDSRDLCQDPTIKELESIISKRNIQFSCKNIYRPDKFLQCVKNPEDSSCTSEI
The test can be described thus: Human recombinant enzyme assay (fluorimetric CD38 enzyme assay, ε-NAD substrate). The test is classed as biochemical. The settings on record: recombinant CD38 100 ng/ml, ε-NAD 100 µM, pH = 6.0, 37°C, reaction time 30 min; read-out: IC50 (nM) ENAD. The method, then:
Enzyme assay on human recombinant CD38 enzyme were performed in order to determine the in vitro potency of the newly synthesized compounds. IC50 values were determined for the test compounds and used to explore the structure-activity relationships (SAR).
N6-etheno-NAD (ε-NAD), a NAD analogue previously shown to be a convenient substrate of CD38 enzyme activity (Graeff et al. J. Biol. Chem. 269, pp 30260-30367, […]) was used to measure the activity of human recombinant CD38 and cell surface enzyme activity.
A fluorimetric CD38 enzyme assay was performed as described by Graeff et al. The reaction was started with 10 µl of N6-etheno-NAD (ε-NAD) substrate, final concentration 100 µM, in a final volume of 0.1 ml buffered with 50 mM HEPES, 0.05% BRIJ, pH = 6.0 containing 100 ng/ml recombinant CD38 (R&D Systems, H7006). Cleavage of ε-NAD, which causes a 10-fold fluorescence enhancement, was continuously followed at 37°C in a BMG Polarstar spectrofluorometer at an emission wavelength of 410 nm and an excitation of 300 nm, reaction time was 30 min. NADase activity was expressed as Δ relative fluorescence/min. The rate of enzyme reactions were compared in the presence and absence of inhibitor molecule, the IC50 values were calculated with Biostat Speed program.
Consider `O=C1N/C(=C\c2ccncc2)C(=O)N1c1ccccc1` [Compound 1, 3-Phenyl-5-[1-pyridin-4-yl-meth-(Z)-ylidene]-imidazolidine-2,4-dione.HCl salt], for which the half-maximal inhibitory concentration (IC50) was determined as 30 nM.

Consider `Cc1cccc(N2C(=O)N/C(=C\c3ccncc3)C2=O)c1` [Compound 3, 5-[1-Pyridin-4-yl-meth-(Z)-ylidene]-3-m-tolyl-imidazolidine-2,4-dione], for which the IC50 is 50 nM.

For `CCc1ccc(N2C(=O)N/C(=C\c3ccncc3)C2=O)cc1` [Compound 4, 3-(4-Ethyl-phenyl)-5-[1-pyridin-4-yl-meth-(Z)-ylidene]-imidazolidine-2,4-dione], the IC50 was determined as 60 nM.

As for `O=C1N/C(=C\c2ccncc2)C(=O)N1c1cccc(Cl)c1` [Compound 5, 3-(3-Chloro-phenyl)-5-[1-pyridin-4-yl-meth-(Z)-ylidene]-imidazolidine-2,4-dione HCl-salt], the IC50 turned out to be 50 nM.

With `O=C1N/C(=C\c2ccncc2)C(=O)N1c1ccc(Cl)c(Cl)c1` [Compound 6, 3-(3,4-Dichloro-phenyl)-5-[1-pyridin-4-yl-meth-(Z)-ylidene]-imidazolidine-2,4-dione], the IC50 came out at 50 nM.

With `O=C1N/C(=C\c2ccncc2)C(=O)N1Cc1ccccc1` [Compound 7, 3-Benzyl-5-[1-pyridin-4-yl-meth-(Z)-ylidene]-imidazolidine-2,4-dione], the IC50 was 50 nM.

Regarding `CSc1ccc(N2C(=O)N/C(=C\c3ccncc3)C2=O)cc1` [Compound 8, 3-(4-Methylsulfanyl-phenyl)-5-[1-pyridin-4-yl-meth-(Z)-ylidene]-imidazolidine-2,4-dione], the IC50 came out at 70 nM.

`O=C1N/C(=C\c2ccncc2)C(=O)N1C1CCCCC1` [Compound 9, 3-Cyclohexyl-5-[1-pyridin-4-yl-meth-(Z)-ylidene]-imidazolidine-2,4-dione]: the IC50 is 292 nM.

On to `O=C1N/C(=C\c2ccncc2)C(=O)N1c1ccc(F)c(F)c1` [Compound 10, 3-(3,4-Difluoro-phenyl)-5-[1-pyridin-4-yl-meth-(Z)-ylidene]-imidazolidine-2,4-dione], for which the concentration for half-maximal inhibition (IC50) came out at 30 nM.

As to `N#Cc1ccc(N2C(=O)N/C(=C\c3ccncc3)C2=O)cc1` [Compound 11, 4-{2,5-Dioxo-4-[1-pyridin-4-yl-meth-(Z)-ylidene]-imidazolidin-1-yl} -benzonitrile], the IC50 was determined as 30 nM.

For the compound `O=C1N/C(=C\c2ccncc2)C(=O)N1c1ccc(F)cc1` [Compound 12, 3-(4-Fluoro-phenyl)-5-[1-pyridin-4-yl-meth-(2)-ylidene]-imidazolidine-2,4-dione], the IC50 turned out to be 16 nM.

Turning to `CC(=O)c1cccc(N2C(=O)N/C(=C\c3ccncc3)C2=O)c1` [Compound 13, 3-(3-Acetyl-phenyl)-5-[1-pyridin-4-yl-meth-(Z)-ylidene]-imidazolidine-2,4-dione], the IC50 was found to be 30 nM.

`CN(C)c1ccc(N2C(=O)N/C(=C\c3ccncc3)C2=O)cc1` [Compound 14, 3-(4-Dimethylamino-phenyl)-5-[1-pyridin-4-yl-meth-(Z)-ylidene]-imidazolidine-2,4-dione]: the half-maximal inhibitory concentration (IC50) was determined as 90 nM.

With `O=C(O)c1ccc(N2C(=O)N/C(=C\c3ccncc3)C2=O)cc1` [Compound 15, 4-{2,5-Dioxo-4-[1-pyridin-4-yl-meth-(Z)-ylidene]-imidazolidin-l-yl}-benzoic acid], the IC50 was 110 nM.

Regarding `O=C1N/C(=C\c2ccncc2)C(=O)N1c1cccc(C(F)(F)F)c1` [Compound 16, 5-[1-Pyridin-4-yl-meth-(Z)-ylidene]-3-(3-triftuoromethyl-phenyl)-imidazolidine-2,4-dione], the IC50 came to 77 nM.

Turning to `COc1ccc(N2C(=O)N/C(=C\c3ccncc3)C2=O)cc1` [Compound 17, 3-(4-Methoxy-phenyl)-5-[1-pyridin-4-yl-meth-(Z)-ylidene]-imidazolidine-2,4-dione], the IC50 was 55 nM.

For the compound `O=C1N/C(=C\c2ccncc2)C(=O)N1CCc1ccccc1` [Compound 18, 3-Phenethyl-5-[1-pyridin-4-yl-meth-(Z)-ylidene]-imidazolidine-2,4-dione], the IC50 was 60 nM.

Take `Cc1ccc(N2C(=O)N/C(=C\c3ccncc3)C2=O)cc1` [Compound 19, 5-[1-Pyndin-4-yl-meth-(Z)-ylidene]-3-p-totyl-imidazolidine-2,4-dione]: the half-inhibitory concentration (IC50) stood at 30 nM.

Regarding `O=C1N/C(=C\c2ccncc2)C(=O)N1c1ccc(Br)cc1` [Compound 20, 3-(4-Bromo-phenyl)-5-[1-pyridin-4-yl-meth-(Z)-ylidene]-imidazolidine-2,4-dione], the IC50 came out at 20 nM.

With `CC(C)N1C(=O)N/C(=C\c2ccncc2)C1=O` [Compound 21, 3-Isopropyl-5-[1-pyridin-4-yl-meth-(Z)-ylidene]-imidazolidine-2,4-dione], the IC50 was determined as 40 nM.

As for `CCCCCCN1C(=O)N/C(=C\c2ccncc2)C1=O` [Compound 22, 3-Hexyl-5-[1-pyridin-4-yl-meth-(Z)-ylidene]-imidazotidine-2,4-dione], the IC50 came to 55 nM.

For the compound `CC(=O)c1ccc(N2C(=O)N/C(=C\c3ccncc3)C2=O)cc1` [Compound 23, 3-(4-Acetyl-phenyl)-5-[1-pyridin-4-yl-meth-(Z)-ylidene]-imidazolidine-2,4-dione], the IC50 is 26 nM.

As for `C[S+]([O-])c1ccc(N2C(=O)N/C(=C\c3ccncc3)C2=O)cc1` (centres unmarked) [Compound 25, 3-(4-Methanesulfinyl-phenyl)-5-[1-pyridin-4-yl-meth-(Z)-ylidene]-imidazolidine-2,4-dione], the IC50 came out at 60 nM.

As for `CS(=O)(=O)c1ccc(N2C(=O)N/C(=C\c3ccncc3)C2=O)cc1` [Compound 26, 3-(4-Methanesulfonyl-phenyl)-5-[1-pyridin-4-yl-meth-(Z)-ylidene]-imidazolidine-2,4-dione], the IC50 is 22 nM.

With `O=C(O)c1cccc(N2C(=O)N/C(=C\c3ccncc3)C2=O)c1` [Compound 27, 3-{2,5-Dioxo-4-[1-pyridin-4-yl-meth-(Z)-ylidene]-imidazolidin-1-yl}-benzoic acid], the IC50 is 56 nM.

`O=C(c1ccc(N2C(=O)N/C(=C\c3ccncc3)C2=O)cc1)N1CCOCC1` [Compound 29, 3-[4-(Morpholine-4-carbonyl)-phenyl]-5-[1-pyridin-4-yl-meth-(Z)-ylidene]-imidazolidine-2,4-dione]: the concentration for half-maximal inhibition (IC50) is 51 nM.

Regarding `O=C1N/C(=C\c2ccncc2)C(=O)N1c1ccc(OC(F)(F)F)cc1` [Compound 30, 5-[1-Pyridin-4-yl-meth-(Z)-ylidene]-3-(4-trifluoromethoxy-phenyl)-imidazolidine-2,4-dione], the IC50 amounted to 28 nM.

On to `O=C1N/C(=C\c2ccncc2)C(=O)N1c1ccc(C(F)(F)F)cc1` [Compound 31, 5-[1-Pyridin-4-yl-meth-(Z)-ylidene]-3-(4-trifluoromethyl-phenyl)-imidazolidine-2,4-dione], for which the IC50 turned out to be 43 nM.

For `O=C(O)Cc1ccc(N2C(=O)N/C(=C\c3ccncc3)C2=O)cc1` [Compound 32, (4-{2,5-Dioxo-4-[1-pyndin-4-yl-meth-(Z)-ylidene]-imidazolidin-1-yl}-phenyl)-acetic acid], the IC50 was 38 nM.

With `O=C(NCCN1CCOCC1)c1cccc(N2C(=O)N/C(=C\c3ccncc3)C2=O)c1` [Compound 34, 3-{2,5-Dioxo-4-[1-pyridin-4-yl-meth-(Z)-ylidene]-imidazolidin-1-yl}-N-(2-morpholin-4-yl-ethyl)-benzamide], the half-inhibitory concentration (IC50) was found to be 65 nM.

As to `CC(C)(C)c1ccc(N2C(=O)N/C(=C\c3ccncc3)C2=O)cc1` [Compound 35, 3-(4-tert-Butyl-phenyl)-5-[1-pyridin-4-yl-meth-(Z)-ylidene]-imidazolidine-2,4-dione], the IC50 is 100 nM.

Regarding `CCOc1ccc(CCN2C(=O)N/C(=C\c3ccncc3)C2=O)cc1OCC` [Compound 36, 3-[2-(3,4-Diethoxy-phenyl)-ethyl]-5-[1-pyridin-4-yl-meth-(Z)-ylidene]-imidazolidine-2,4-dione], the IC50 is 250 nM.

Consider `O=C1N/C(=C\c2ccncc2)C(=O)N1CCN1CCCC1` [Compound 37, 5-[1-Pyridin-4-yl-meth-(Z)-ylidene]-3-(2-pyrrolidin-1-yl-ethyl)-imidazolidine-2,4-dione], for which the IC50 is 290 nM.

`O=C1N/C(=C\c2ccncc2)C(=O)N1C12CC3CC(CC(C3)C1)C2` [Compound 38, 3-Adamantan-1-yl-5-[1-pyridin-4-yl-meth-(Z)-ylidene]-imidazolidine-2,4-dione]: the concentration for half-maximal inhibition (IC50) worked out at 400 nM.

On to `O=C1N/C(=C\c2ccncc2)C(=O)N1c1cccnc1` [Compound 39, 3-Pyridin-3-yl-5-[1-pyridin-4-yl-meth-(Z)-ylidene]-imidazolidine-2,4-dione], for which the IC50 turned out to be 61 nM.
